# Laboratory results: US8703179B2, “Mucosal formulation” (Kimberly-Clark Worldwide, Inc., priority 2006, dated 2014)
# Read-outs that look alike come from different tables or passages of the source.
# Columns and labels:
# Format in all cases: cell-based
# [1] = system: Lactobacillus acidophilus; experiment: Growth inhibition (minimum inhibitory concentration, gross turbidity); details: read-out: Minimum Inhibitory Concentration L. acidophilus
# Experimental: (§1) The ability of the phosphocholine derivatives of Examples 1-2 to inhibit growth of Candida albicans, Staphylococcus aureus, Lactobacillus acidophilus, and Gardnerella vaginale was tested. Each phosphocholine derivative (at concentrations ranging from 0 to 500 micrograms per milliliter) was dissolved into a broth media and 6 wt. % ethanol. Thereafter, 0.1 milliliter of each solution was inoculated in 1.0 milliliter of a growth media containing the microorganism of interest. The growth media was TSB media for Candida albicans and Staphylococcus aureus, MRS broth for Lactobacillus acidophilus, and NYC-3 broth enriched proteose peptone for Gardnerella vaginale. The concentration of the microorganism in the growth media was 10^4 colony forming units (“CFU”) per milliliter.
# (§2) Thereafter, the gross turbidity of the media was monitored at 24, 48, and 72 hours time intervals. Gross turbidity is an indicative of growth inhibition and is determined using visual determination or a spectrophotometer. The concentration of the phosphocholine derivative at which no turbidity is detected is designated as the “minimum inhibitory concentration.” Phosphocholine derivatives having lower minimum inhibitory concentrations are generally considered to have better antimicrobial efficacy.
# Staphylococcus aureus = experiment: as above; details: read-out: Minimum Inhibitory Concentration S. aureus
# Experimental: as §1, §2
# Gardnerella vaginale = experiment: as above; details: read-out: Minimum Inhibitory Concentration G. vaginale
# Experimental: as §1, §2
# Candida albicans = experiment: as above; details: read-out: Minimum Inhibitory Concentration C. albicans
# Experimental: as §1, §2
# [2] = system: L. acidophilus (lactobacilli); experiment: Time-dependent inhibition (organism count); details: for Organism Count / Percent Reduction: L. acidophilus
# Excerpt: (§3) Hexadecyl phosphocholine (“BRB-1”) was studied for inhibition of Candida albicans (C. albicans), Staphylococcus aureus (S. aureus), and lactobacilli. The results are shown below in Tables 3-4. Tetradecyl phosphocholine (“BRB-3”) was also studied for inhibition of C. albicans aureus, and lactobaccili.
# [3] = system: Staphylococcus aureus (S. aureus); experiment: Time-dependent inhibition (organism count)
# Excerpt: as §3
# [4] = system: Candida albicans (C. albicans); experiment: Time-dependent inhibition (organism count)
# Excerpt: as §3
# [5] = MRS broth, 10^4 CFU/ml, turbidity at 24, 48, 72 hours
# [6] = TSB media, 10^4 CFU/ml, turbidity at 24, 48, 72 hours
# [7] = NYC-3 broth, 10^4 CFU/ml, turbidity at 24, 48, 72 hours
compound,measurement,setting,value
CCCCCCCCCCCCCCCCOCC(O)COP(=O)([O-])OCC[N+](C)(C)C (racemic),MIC,[1]; [5],250 µg/mL
same,MIC,Staphylococcus aureus; [6],250 µg/mL
same,MIC,Gardnerella vaginale; [7],250 µg/mL
same,MIC,Candida albicans; [6],125 µg/mL
tetradecyl phosphocholine [BRB-3],Organism Count,"[2]; 10 μg/ml, 0 Hour",3.1 × 10^5 CFU/ml
same,Percent Reduction,"[2]; 10 μg/ml, 0 Hour",16.2%
same,Organism Count,"[2]; 10 μg/ml, 1 Hour",2.9 × 10^5 CFU/ml
same,Percent Reduction,"[2]; 10 μg/ml, 1 Hour",21.6%
same,Organism Count,"[2]; 10 μg/ml, 2 Hours",2.4 × 10^5 CFU/ml
same,Percent Reduction,"[2]; 10 μg/ml, 2 Hours",35.1%
same,Organism Count,"[2]; 10 μg/ml, 4 Hours",2.3 × 10^5 CFU/ml
same,Percent Reduction,"[2]; 10 μg/ml, 4 Hours",37.8%
same,Organism Count,"[2]; 100 μg/ml, 0 Hour",4.5 × 10^5 CFU/ml
same,Percent Reduction,"[2]; 100 μg/ml, 0 Hour",88.5%
same,Percent Reduction,"[2]; 100 μg/ml, 1 Hour",99.99%
same,Inhibition of lactobacilli (in words),"[2]; Tables 4 and 5, ascribed to organism instability in the media and the protocol",some inhibtion
same,Organism Count,"[3]; 10 μg/ml, 0 Hour",1.4 × 10^5 CFU/ml
same,% Reduction,"[3]; 10 μg/ml, 1 Hour",18.3%
same,Organism Count,"[3]; 10 μg/ml, 1 Hour",9.8 × 10^4 CFU/ml
same,% Reduction,"[3]; 10 μg/ml, 2 Hours",25.8%
same,Organism Count,"[3]; 10 μg/ml, 2 Hours",8.9 × 10^4 CFU/ml
same,% Reduction,"[3]; 10 μg/ml, 4 Hours",38.3%
same,Organism Count,"[3]; 10 μg/ml, 4 Hours",7.4 × 10^4 CFU/ml
same,% Reduction,"[3]; 100 μg/ml, 0 Hour",7.1%
same,Organism Count,"[3]; 100 μg/ml, 0 Hour",1.3 × 10^5 CFU/ml
same,% Reduction,"[3]; 100 μg/ml, 1 Hour",97.9%
same,Organism Count,"[3]; 100 μg/ml, 1 Hour",2.9 × 10^3 CFU/ml
same,% Reduction,"[3]; 100 μg/ml, 2 Hours",99.9%
same,Organism Count,"[3]; 100 μg/ml, 2 Hours",1.1 × 10^2 CFU/ml
same,% Reduction,"[3]; 100 μg/ml, 4 Hours",99.99%
same,% Reduction,"[4]; 10 μg/ml, 0 Hour",2.7%
same,Organism Count,"[4]; 10 μg/ml, 0 Hour",7.1 × 10^4 CFU/ml
same,% Reduction,"[4]; 10 μg/ml, 1 Hour",20.5%
same,Organism Count,"[4]; 10 μg/ml, 1 Hour",5.8 × 10^4 CFU/ml
same,% Reduction,"[4]; 10 μg/ml, 2 Hours",30.1%
same,Organism Count,"[4]; 10 μg/ml, 2 Hours",5.1 × 10^4 CFU/ml
same,% Reduction,"[4]; 10 μg/ml, 4 Hours",52.0%
same,Organism Count,"[4]; 10 μg/ml, 4 Hours",3.5 × 10^4 CFU/ml
same,% Reduction,"[4]; 100 μg/ml, 0 Hour",26.0%
same,Organism Count,"[4]; 100 μg/ml, 0 Hour",7.4 × 10^4 CFU/ml
same,% Reduction,"[4]; 100 μg/ml, 1 Hour",43.0%
same,Organism Count,"[4]; 100 μg/ml, 1 Hour",5.7 × 10^4 CFU/ml
same,% Reduction,"[4]; 100 μg/ml, 2 Hours",51.0%
same,Organism Count,"[4]; 100 μg/ml, 2 Hours",4.9 × 10^4 CFU/ml
same,% Reduction,"[4]; 100 μg/ml, 4 Hours",46.0%
same,Organism Count,"[4]; 100 μg/ml, 4 Hours",5.4 × 10^4 CFU/ml
"CCCCCCCCCCCCCCCCOP(=O)([O-])OCC[N+](C)(C)C [BRB-1, hexadecyl phosphocholine]",MIC,[1]; [5],125 µg/mL
same,MIC,Staphylococcus aureus; [6],125 µg/mL
same,MIC,Gardnerella vaginale; [7],31.2 µg/mL
same,MIC,Candida albicans; [6],15.6 µg/mL
same,Organism Count,"[2]; 1 μg/ml, 0 Hour",7.0 × 10^4 CFU/ml
same,Percent Reduction,"[2]; 1 μg/ml, 0 Hour",6.7%
same,Organism Count,"[2]; 1 μg/ml, 1 Hour",8.6 × 10^4 CFU/ml
same,Organism Count,"[2]; 1 μg/ml, 2 Hours",7.6 × 10^4 CFU/ml
same,Organism Count,"[2]; 1 μg/ml, 4 Hours",6.7 × 10^4 CFU/ml
same,Percent Reduction,"[2]; 1 μg/ml, 4 Hours",10.7%
same,Organism Count,"[2]; 10 μg/ml, 0 Hour",1.8 × 10^5 CFU/ml
same,Percent Reduction,"[2]; 10 μg/ml, 0 Hour",18.2%
same,Organism Count,"[2]; 10 μg/ml, 1 Hour",20 CFU/ml
same,Percent Reduction,"[2]; 10 μg/ml, 1 Hour",99.99%
same,Percent Reduction,"[2]; 10 μg/ml, 6 Hours",99.99%
same,Organism Count,"[2]; 100 μg/ml, 0 Hour",1.5 × 10^5 CFU/ml
same,Percent Reduction,"[2]; 100 μg/ml, 0 Hour",31.8%
same,Organism Count,"[2]; 100 μg/ml, 1 Hour",70 CFU/ml
same,Percent Reduction,"[2]; 100 μg/ml, 1 Hour",99.97%
same,Percent Reduction,"[2]; 100 μg/ml, 6 Hours",99.99%
same,% Reduction,"[3]; 10 μg/ml, 0 Hour",18.5%
same,Organism Count,"[3]; 10 μg/ml, 0 Hour",5.3 × 10^4 CFU/ml
same,% Reduction,"[3]; 10 μg/ml, 1 Hour",98.9%
same,Organism Count,"[3]; 10 μg/ml, 1 Hour",7.3 × 10^2 CFU/ml
same,% Reduction,"[3]; 10 μg/ml, 2 Hours",99.91%
same,Organism Count,"[3]; 10 μg/ml, 2 Hours",60 CFU/ml
same,% Reduction,"[3]; 10 μg/ml, 4 Hours",99.98%
same,% Reduction,"[3]; 100 μg/ml, 0 Hour",39.2%
same,Organism Count,"[3]; 100 μg/ml, 0 Hour",4.8 × 10^4 CFU/ml
same,% Reduction,"[3]; 100 μg/ml, 1 Hour",99.8%
same,Organism Count,"[3]; 100 μg/ml, 1 Hour",1.4 × 10^2 CFU/ml
same,% Reduction,"[3]; 100 μg/ml, 2 Hours",99.97%
same,Organism Count,"[3]; 100 μg/ml, 2 Hours",20 CFU/ml
same,% Reduction,"[3]; 100 μg/ml, 4 Hours",99.99%
same,Organism Count,"[4]; 10 μg/ml, 0 Hour",8.4 × 10^5 CFU/ml
same,% Reduction,"[4]; 10 μg/ml, 1 Hour",68.0%
same,Organism Count,"[4]; 10 μg/ml, 1 Hour",2.3 × 10^5 CFU/ml
same,% Reduction,"[4]; 10 μg/ml, 2 Hours",99.7%
same,Organism Count,"[4]; 10 μg/ml, 2 Hours",2.1 × 10^3 CFU/ml
same,% Reduction,"[4]; 10 μg/ml, 4 Hours",99.99%
same,Organism Count,"[4]; 10 μg/ml, 4 Hours",50 CFU/ml
same,% Reduction,"[4]; 100 μg/ml, 0 Hour",27.5%
same,Organism Count,"[4]; 100 μg/ml, 0 Hour",2.9 × 10^5 CFU/ml
same,% Reduction,"[4]; 100 μg/ml, 1 Hour",70.0%
same,Organism Count,"[4]; 100 μg/ml, 1 Hour",1.2 × 10^5 CFU/ml
same,% Reduction,"[4]; 100 μg/ml, 2 Hours",99.8%
same,Organism Count,"[4]; 100 μg/ml, 2 Hours",8.0 × 10^2 CFU/ml
same,% Reduction,"[4]; 100 μg/ml, 4 Hours",99.9%
same,Organism Count,"[4]; 100 μg/ml, 4 Hours",3.8 × 10^2 CFU/ml
CCCCCCCCCCCCCCOP(=O)([O-])OCC[N+](C)(C)C,MIC,[1]; [5],250 µg/mL
same,MIC,Staphylococcus aureus; [6],250 µg/mL
same,MIC,Gardnerella vaginale; [7],250 µg/mL
same,MIC,Candida albicans; [6],62.5 µg/mL
CCCCCCCCCCCCCCCCOP([O-])(=S)OCC[N+](C)(C)C (stereo not shown),MIC,[1]; 72 h,31.2 µg/mL
same,MIC,Staphylococcus aureus; 72 h,31.2 µg/mL
same,MIC,Gardnerella vaginale; 72 h,31.2 µg/mL
same,MIC,Candida albicans; 72 h,31.2 µg/mL
